{"source": "BindingDB's records for doi:10.1021/acs.jmedchem.1c00726", "about": "(University of Florida, 2021)", "biological_target": "5-hydroxytryptamine receptor 2B (Homo sapiens, UniProt P41595)", "sequence (P41595 whole entry)": "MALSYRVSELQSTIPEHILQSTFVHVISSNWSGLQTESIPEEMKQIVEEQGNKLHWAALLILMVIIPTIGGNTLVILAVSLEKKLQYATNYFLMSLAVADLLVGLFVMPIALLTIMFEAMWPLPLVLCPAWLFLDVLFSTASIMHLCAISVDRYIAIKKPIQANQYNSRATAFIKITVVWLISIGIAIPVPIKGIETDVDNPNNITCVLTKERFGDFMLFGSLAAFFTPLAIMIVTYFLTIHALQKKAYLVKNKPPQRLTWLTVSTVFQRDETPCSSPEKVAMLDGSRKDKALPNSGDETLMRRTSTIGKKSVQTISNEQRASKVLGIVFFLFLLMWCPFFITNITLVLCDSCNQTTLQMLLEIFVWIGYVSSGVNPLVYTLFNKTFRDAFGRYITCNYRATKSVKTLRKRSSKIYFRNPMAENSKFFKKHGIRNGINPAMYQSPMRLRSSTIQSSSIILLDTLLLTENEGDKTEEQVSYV", "experiment": "Displacement of [3H]LSD from human recombinant 5-HT2B receptor expressed in CHO cells by radioligand completion assay relative to control", "data": [{"molecule": "COc1cc(C[C@@H](C)N)c(OC)cc1I", "note": "[(R)-2-(4-iodo-2,5-dimethoxyphenyl)-1-methylethylamine]", "values": [{"measurement": "Ki", "value": 2.2, "unit": "nM"}]}]}
